Laboratory results from patent US7399475B1, “Inactivated microorganisms comprising substances having pharmacological activity” (Toner Enterprise Inc., priority 1999, dated 2008).

Columns and labels:
[1] = known from the literature; cited from earlier work
[2] = Quantity of active agent incorporated in the yeast cells, released by hypertonic (osmotic) treatment and determined by HPLC; assay type: physicochemical, Saccharomyces cerevisiae; settings: batch not stated, column unlabelled
Experimental: The suspensions obtained as described above were tested in order to check the quantity of ascorbic acid that had accumulated in the cells.
Step IV)—The suspension obtained in Step III) was centrifuged at 4000 r.p.m. (1252 R.C.F.). The precipitated was washed twice (sample A) or thrice (sample B) with an isotonic solution of sodium chloride (0.9%) keeping it in suspension during each washing.
Step V)—The centrifugate was brought up to 80 g with the hypertonic solution (NaCl 2.0M) used for Step I). In order to complete the osmotic treatment, the suspension was kept under gentle stirring for 6 hours at 25° C.
Step VI)—The ascorbic acid present in each solution (mg/ml) and in the microorganism (mg/g) was determined by HPLC, by the use of the following formula: mg/g=Ac×Ps×fs×Ds×1000/As×Pc×Dc,
The suspension obtained as described above was tested in order to check the quantity of oxytetracycline that had accumulated in the cells.
Step IV)—The suspension obtained in Step II) was centrifuged at 4000 r.p.m. (1252 R.C.F.). The centrifugate was washed twice (A) or thrice (B) with an isotonic solution of sodium chloride (0.9%) keeping it in suspension for 10 minutes before centrifugation.
Step VI)—The oxytetracycline HCl present in each solution (mg/ml) and in the microorganism (mg/g) was determined by HPLC, by the use of the following formula: mg/g=Ac×Ps×fs×Ds×1000/As×Pc×Dc,
The suspension obtained as described above was tested in order to check the quantity of sodium sulphadimethoxine that had accumulated in the cells.
Step VI)—The sodium sulphadimethoxine present in each (mg/ml) and in the microorganism (mg/g) was determined by HPLC, by the use of the following formula: mg/g=Ac×Ps×fs×Ds×1000/As×Pc×Dc,
The suspension as previously obtained was tested to ascertain the quantity of sodium sulphadimethoxin that had accumulated in the cells.
Step IV)—For analytical reasons, the suspension obtained in Step III) was diluted with an isotonic solution of sodium sulphadimethoxin (5.17%) to 200 g. An aliquot of 80 g of suspension was taken. The suspension was centrifuged at 10 000 r.p.m., and the centrifugate was washed twice (A) or thrice (B) with an isotonic solution of sodium chloride (0.9%). The suspension was stirred for 10 minutes before each washing.
Step VI)—The sodium sulphadimethoxin present in solution (mg/ml) and in the microorganism (mg/g) was determined by HPLC, by the use of the following formula: mg/g=Ac×Ps×fs×Ds×1000/As×Pc×Dc,
The suspension obtained as described above was tested in order to check the quantity of ascorbic acid that had been loaded in the cells. […]
Step VI)—The ascorbic acid present in the washing solution (mg/ml) and in the microorganism (mg/g) was determined by HPLC, by the use of the following formula: mg/g=Ac×Ps×fs×Ds×1000/As×Pc×Dc, […]

[3] = Incorporated vitamins determined by HPLC after 5N HCl or NaOH 0.05N extraction of dried yeast; assay type: physicochemical, Saccharomyces cerevisiae; settings: Example 10, content in dried loaded yeast; for Incorporated vitamins (HCl extraction), Content: 5N HCl extraction; for Incorporated vitamins (NaOH extraction), Content: NaOH 0.05N extraction
Experimental: In this treatment yeast cells have been partially emptied by the hypertonic solution, comprising NaCl and Trisodium citrate bihydrate, as already described. Vitamins were then incorporated by incubation in a vitamins hypotonic solution (hypotonic=80% isotonicity). The quantity of vitamins loaded into the cells, was measured by HPLC. The suspension was then centrifuged and the centrifugates was washed twice with 560 g NaCl isotonic solution (0.9%). Step IV)-The centrifugate was air-dried at 45° C. for 36 hours. After mincing the dried pellets were sifted on a 400μ net. Step V)-The incorporated vitamins quantities were determined by HPLC af[…] HCl extraction for one hours at 25° C. under gentle stirring and after NaOH 0.05N extraction (one hours at 25° C. under gentle stirring). In this treatment yeast cells have been partially emptied by the hypertonic solution, comprising NaCl and Trisodium citrate bihydrate, as already described. α-tocopherol (vitamin E) was then incorporated by incubation in a vitamin hypotonic solution (hypotonic=80% isotonicity). The quantity of vitamin loaded into the cells, was measured HPLC. […] An aliquot of the solution (B), was then washed one more time with a NaCl isotonic solution Step IV)-The centrifugate was air-dried at 40° C. for 36 hours. The dried mass of cells was minced and then sifted on a 400μ net. Step V)-The incorporated vitamin quantities were determined by HPLC af[…] HCl extraction for one hour at 25° C. under gentle stirring.

Compound	Incorporated vitamins (HCl extraction), Content [3]	Incorporated vitamins (NaOH extraction), Content [3]	other results
O=C1O[C@H]([C@@H](O)CO)C(O)=C1O [Ascorbic acid, ascorbic acid]	–	–	thermostability of ascorbic acid as such [1]: easily denatured at much lower temperatures; Ascorbic acid final soln. ([2]; Example 5, Test 5NC): 0.16 mg/mL
Nc1nc2ncc(CNc3ccc(C(=O)N[C@@H](CCC(=O)O)C(=O)O)cc3)nc2c(=O)[nH]1 [Folic Acid, folic acid]	0.203 0/00 (mg/g)	2.663 0/00 (mg/g)	–
CN(C)[C@@H]1C(O)=C(C(N)=O)C(=O)[C@@]2(O)C(O)=C3C(=O)c4c(O)cccc4[C@@](C)(O)[C@H]3[C@H](O)[C@@H]12.Cl [Oxytetracyclin, oxytetracycline HCl]	–	–	Oxytetracyclin final soln. ([2]; Example 2, Test 3NO): 0.249 mg/mL
Cc1ncc(C[n+]2csc(CCO)c2C)c(N)n1 [Tiamine, thiamine]	3.787 0/00 (mg/g)	3.493 0/00 (mg/g)	–
COc1cc([N-]S(=O)(=O)c2ccc(N)cc2)nc(OC)n1.[Na+] [sulphadimetoxin, sodium sulphadimethoxine]	–	–	Sulphadimetoxin final soln. ([2]; Example 3, Test 4NS1): 0.075 mg/mL; Sulphadimetoxin final soln. ([2]; Example 4, Test 6NS1): 0.066 mg/mL
cyanocobalamin	0.018 0/00 (mg/g)	0.014 0/00 (mg/g)	–
